According to PubChem BioAssay AID248 (DTP/NCI, 2004):
Values joined by “and” are separate entries in the source; they are usually repeats but may differ in a detail not shown here. Equal entries are not always repeated. Inconclusive results and toxic doses are left out. Rule as the data show it: active = T/C of 150% or more; inactive = T/C below 125%.

System: L1210 leukemia ip in BDF1 mice, survival T/C
Test: NCI In Vivo Anticancer Drug Screen. Data for tumor model L1210 Leukemia (intraperitoneal) in B6D2F1 (BDF1) mice
Conditions: endpoint: mean survival time, higher = longer survival
Procedure, shortened: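 Value reflects the ratio of survival in compound-treated mice to survival in vehicle-treated controls, with both groups carrying the same transplanted tumor.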

[1] = dose: 100.0 mg/kg/injection, schedule: Q01DX009 (ip), vehicle: Klucel (hydroxypropylcellulose) (HPC)
[2] = dose: 100.0 mg/kg/injection, schedule: Q04DX003 (ip), vehicle: Klucel (hydroxypropylcellulose) (HPC)
[3] = dose: 100.0 mg/kg/injection, schedule: Q04DX003 (ip), vehicle: saline with Tween-80
[4] = dose: 200.0 mg/kg/injection, schedule: Q01DX009 (ip), vehicle: Klucel (hydroxypropylcellulose) (HPC)
[5] = dose: 200.0 mg/kg/injection, schedule: Q04DX003 (ip), vehicle: Klucel (hydroxypropylcellulose) (HPC)
[6] = dose: 200.0 mg/kg/injection, schedule: Q04DX003 (ip), vehicle: saline with Tween-80
[7] = dose: 400.0 mg/kg/injection, schedule: Q01DX009 (ip), vehicle: Klucel (hydroxypropylcellulose) (HPC)
[8] = dose: 400.0 mg/kg/injection, schedule: Q04DX003 (ip), vehicle: Klucel (hydroxypropylcellulose) (HPC)
[9] = dose: 400.0 mg/kg/injection, schedule: Q04DX003 (ip), vehicle: saline with Tween-80
[10] = dose: 100.0 mg/kg/injection, schedule: Q01DX001 (ip), vehicle: Klucel (hydroxypropylcellulose) (HPC)
[11] = dose: 200.0 mg/kg/injection, schedule: Q01DX001 (ip), vehicle: Klucel (hydroxypropylcellulose) (HPC)
[12] = dose: 100.0 mg/kg/injection, schedule: Q04DX002 (ip), vehicle: Klucel (hydroxypropylcellulose) (HPC)
[13] = dose: 200.0 mg/kg/injection, schedule: Q04DX002 (ip), vehicle: Klucel (hydroxypropylcellulose) (HPC)
[14] = dose: 400.0 mg/kg/injection, schedule: Q04DX002 (ip), vehicle: Klucel (hydroxypropylcellulose) (HPC)
[15] = dose: 50.0 mg/kg/injection, schedule: Q01DX009 (ip), vehicle: saline with Tween-80
[16] = dose: 100.0 mg/kg/injection, schedule: Q01DX009 (ip), vehicle: saline with Tween-80
[17] = dose: 200.0 mg/kg/injection, schedule: Q01DX009 (ip), vehicle: saline with Tween-80
[18] = dose: 100.0 mg/kg/injection, schedule: Q04DX003 (ip), vehicle: saline
[19] = dose: 200.0 mg/kg/injection, schedule: Q04DX003 (ip), vehicle: saline
[20] = dose: 400.0 mg/kg/injection, schedule: Q01DX009 (ip), vehicle: saline with Tween-80

Measured: T/C

O=C(O)CCCCSc1ncnc2nc[nH]c12
inactive: dose: 15.0 mg/kg/injection, schedule: Q01DX009 (ip), vehicle: saline with Tween-80 106 % of control | dose: 15.0 mg/kg/injection, schedule: Q01DX009 (oral), vehicle: saline with Tween-80 98 % of control | dose: 30.0 mg/kg/injection, schedule: Q01DX009 (ip), vehicle: saline with Tween-80 103 % of control | dose: 30.0 mg/kg/injection, schedule: Q01DX009 (oral), vehicle: saline with Tween-80 86 % of control | dose: 60.0 mg/kg/injection, schedule: Q01DX009 (ip), vehicle: saline with Tween-80 92 % of control | dose: 60.0 mg/kg/injection, schedule: Q01DX009 (oral), vehicle: saline with Tween-80 95 % of control | [1] 113 % of control | [2] 107 % of control | [3] 103 % of control | dose: 120.0 mg/kg/injection, schedule: Q01DX009 (ip), vehicle: saline with Tween-80 123 % of control | dose: 120.0 mg/kg/injection, schedule: Q01DX009 (oral), vehicle: saline with Tween-80 109 % of control | [4] 101 % of control | [5] 102 % of control | [6] 104 % of control | dose: 240.0 mg/kg/injection, schedule: Q01DX009 (ip), vehicle: saline with Tween-80 105 % of control | dose: 240.0 mg/kg/injection, schedule: Q01DX009 (oral), vehicle: saline with Tween-80 91 % of control | [7] 116 % of control | [8] 115 % of control | [9] 103 % of control | dose: 480.0 mg/kg/injection, schedule: Q01DX009 (ip), vehicle: saline with Tween-80 118 % of control | dose: 480.0 mg/kg/injection, schedule: Q01DX009 (oral), vehicle: saline with Tween-80 100 % of control | dose: 720.0 mg/kg/injection, schedule: Q01DX009 (oral), vehicle: saline with Tween-80 100 % of control

COc1ccc([N+](=O)[O-])cc1NC(=O)c1cccc(Cl)c1
inactive: [1] 114 % of control | [4] 98 % of control | [7] 102 % of control

CCOC(=O)CC(=O)NC(C)(CCOCc1ccccc1)C(=O)OCC (stereo not drawn)
inactive: dose: 50.0 mg/kg/injection, schedule: Q01DX001 (ip), vehicle: carboxymethylcellulose (CMC) 101 % of control | dose: 100.0 mg/kg/injection, schedule: Q01DX001 (ip), vehicle: carboxymethylcellulose (CMC) 103 % of control | dose: 200.0 mg/kg/injection, schedule: Q01DX001 (ip), vehicle: carboxymethylcellulose (CMC) 110 % of control | dose: 400.0 mg/kg/injection, schedule: Q01DX001 (ip), vehicle: carboxymethylcellulose (CMC) 103 % of control

CCCCN(C)N=Nc1n[nH]nc1C(N)=O
inactive: dose: 25.0 mg/kg/injection, schedule: Q01DX Z (ip), vehicle: carboxymethylcellulose (CMC) 118 % of control | dose: 50.0 mg/kg/injection, schedule: Q01DX Z (ip), vehicle: carboxymethylcellulose (CMC) 113 % of control | dose: 250.0 mg/kg/injection, schedule: Q01DX001 (ip), vehicle: carboxymethylcellulose (CMC) 123 % of control

O=c1c(N=Nc2ccc(Cl)cc2)c(O)n(-c2ccc(Br)cc2)c(=S)n1-c1ccccc1
inactive: dose: 50.0 mg/kg/injection, schedule: Q01DX001 (ip), vehicle: Klucel (hydroxypropylcellulose) (HPC) 97 % of control | [10] 101 % of control | [11] 97 % of control

O=C(Nc1ccccc1C(=O)N/N=C/c1c(O)ccc2ccccc12)c1ccccc1Cl
inactive: [10] 95 % of control | [1] 99 % of control and 103 % of control | [12] 95 % of control and 104 % of control | [2] 100 % of control | [11] 93 % of control | [4] 101 % of control and 102 % of control | [13] 103 % of control | [5] 96 % of control | dose: 400.0 mg/kg/injection, schedule: Q01DX001 (ip), vehicle: Klucel (hydroxypropylcellulose) (HPC) 95 % of control | [7] 94 % of control and 95 % of control | [14] 93 % of control and 92 % of control | [8] 96 % of control

COc1ccc(C(=O)Nc2c(C)cccc2C)cc1
inactive: dose: 100.0 mg/kg/injection, schedule: Q01DX009 (ip), vehicle: carboxymethylcellulose (CMC) 94 % of control and 90 % of control | [12] 112 % of control | dose: 100.0 mg/kg/injection, schedule: Q04DX002 (ip), vehicle: carboxymethylcellulose (CMC) 97 % of control and 108 % of control | dose: 100.0 mg/kg/injection, schedule: Q04DX003 (ip), vehicle: carboxymethylcellulose (CMC) 104 % of control | dose: 200.0 mg/kg/injection, schedule: Q01DX009 (ip), vehicle: carboxymethylcellulose (CMC) 94 % of control and 92 % of control | [13] 108 % of control | dose: 200.0 mg/kg/injection, schedule: Q04DX002 (ip), vehicle: carboxymethylcellulose (CMC) 100 % of control and 101 % of control | dose: 200.0 mg/kg/injection, schedule: Q04DX003 (ip), vehicle: carboxymethylcellulose (CMC) 106 % of control | dose: 400.0 mg/kg/injection, schedule: Q01DX009 (ip), vehicle: carboxymethylcellulose (CMC) 94 % of control and 97 % of control | [14] 108 % of control | dose: 400.0 mg/kg/injection, schedule: Q04DX002 (ip), vehicle: carboxymethylcellulose (CMC) 103 % of control | dose: 400.0 mg/kg/injection, schedule: Q04DX003 (ip), vehicle: carboxymethylcellulose (CMC) 106 % of control

CCN(CC)CCNc1cccc2sc3ccccc3c(=O)c12
inactive: dose: 50.0 mg/kg/injection, schedule: Q01DX009 (ip), vehicle: Klucel (hydroxypropylcellulose) (HPC) 92 % of control | [1] 94 % of control | [4] 94 % of control | [7] 100 % of control

C=CCN(CC=C)c1nc(N(CC)CC)nc(N(CC)CC)n1
inactive: dose: 25.6 mg/kg/injection, schedule: Q04DX002 (ip), vehicle: saline with Tween-80 91 % of control | dose: 64.0 mg/kg/injection, schedule: Q04DX002 (ip), vehicle: saline with Tween-80 97 % of control | dose: 160.0 mg/kg/injection, schedule: Q04DX002 (ip), vehicle: saline with Tween-80 102 % of control | dose: 400.0 mg/kg/injection, schedule: Q04DX002 (ip), vehicle: saline with Tween-80 112 % of control

CC1(C)C(N2CCOCC2)CS1(=O)=O (stereo not drawn)
inactive: [15] 101 % of control | [16] 103 % of control | [3] 94 % of control | [17] 104 % of control | [6] 88 % of control

CC12CCC(=O)C=C1CCCC2=O (stereo not drawn)
inactive: [18] 95 % of control | [19] 101 % of control

CCCCSCc1nc2nc(Cl)c(Cl)nc2[nH]1
inactive: [15] 96 % of control | [16] 98 % of control and 92 % of control | [3] 100 % of control | [17] 112 % of control | [6] 98 % of control | [20] 95 % of control and 96 % of control | [9] 98 % of control

O=C(O)CCSc1nc[nH]c1[N+](=O)[O-]
inactive: dose: 100.0 mg/kg/injection, schedule: Q01DX001 (ip), vehicle: saline with Tween-80 102 % of control | dose: 200.0 mg/kg/injection, schedule: Q01DX001 (ip), vehicle: saline with Tween-80 96 % of control | dose: 400.0 mg/kg/injection, schedule: Q01DX001 (ip), vehicle: saline with Tween-80 96 % of control

COc1ccc(C=NC2C(OC(C)=O)OC(COS(=O)(=O)c3ccc(C)cc3)C(OC(C)=O)C2OC(C)=O)cc1 (stereo not drawn)
inactive: [3] 101 % of control | [6] 101 % of control | [9] 93 % of control

NC(CCc1cc(O)ccc1O)C(=O)O (stereo not drawn)
inactive: [18] 105 % of control | [19] 107 % of control | dose: 400.0 mg/kg/injection, schedule: Q04DX003 (ip), vehicle: saline 98 % of control

CN(C)/N=C(\CBr)c1ccc([N+](=O)[O-])cc1
inactive: [15] 96 % of control | [16] 96 % of control | [17] 89 % of control

COc1ccccc1-n1c(=O)c(N=Nc2ccccc2)c(O)n(-c2ccccc2Cl)c1=S
inactive: dose: 50.0 mg/kg/injection, schedule: Q04DX003 (ip), vehicle: saline with Tween-80 94 % of control | [3] 94 % of control

C=CCOC(=O)CCCCCCCCCCC
inactive: [16] 107 % of control | [17] 107 % of control | [20] 96 % of control
